assay: Human HepG2 cell viability assay in 384 well format; assay type: toxicity, cell-based; parameters: dose 125 nL, time 70.5 hour; cytotoxicity at 70.5 h: concentration not given beside the values; conditions: HepG2 cells, read-out: Inhibition

Row | SMILES | cytotoxicity at 70.5 h
1 | COCCN1CCN(CC(=O)N(C)Cc2cccc(F)c2)CC1C (centres undefined) | 0.133%
2 | O=C(c1cc(=O)c(OCc2ccccc2)co1)N1CCSCC1 | -18.7%
3 | CCN1CCN(C(=O)c2ccc3c(c2)CCCN3)[C@H]2CS(=O)(=O)C[C@H]21 | -5.32%
4 | COc1ncc(NCc2ccc(F)cc2)cc1C(N)=O | -6.54%
5 | Cc1noc(CCCC(=O)NC(C)c2nnc3n2CCCCC3)n1 (centres undefined) | -1.92%
6 | OC[C@H]1CCCN1c1nccc(-c2c[nH]nc2C2CCCCC2)n1 | 2.37%
7 | CN(C)CCN1CCN(Cc2cccc(C#N)c2)Cc2cccnc21 | -2.4%
8 | Cn1cnc(S(=O)(=O)N2CCCC2c2cnccn2)c1 (centres undefined) | -9.6%
9 | Cc1cccc(OCCN2CCN(Cc3noc(C)n3)CC2)c1 | -2.75%
10 | Cc1cccc(C2CCCN(C(=O)CN3C(=O)CCNC3=O)C2)c1 (centres undefined) | -13.9%
11 | Cc1nc(-c2nnc[nH]2)sc1C(=O)N1CCCC1c1cccs1 (centres undefined) | -6.5%
12 | O=C(NCCn1nc2ccccn2c1=O)c1cc[nH]n1 | 0.216%
13 | Cc1cc(-c2nnn(CCNS(C)(=O)=O)n2)ccc1F | 1.75%
14 | CCNC(=O)N1CC[C@@H](CC(=O)O)[C@@H](CC2=NCCc3ccccc32)C1 | -2.71%
15 | COC(=O)C(C)(C)C(C)(C)NC(=O)Nc1nnc(-c2ccccn2)s1 | -10.6%
16 | CS(=O)(=O)N1CCCCCC1C1CCN(c2ncccn2)CC1 (centres undefined) | 15.3%
17 | CC(C)N1CCCC(Cc2nccnc2Cl)C1 (centres undefined) | -4.45%
18 | O=C(CCn1cccn1)NCCOc1ncc(Cl)cc1Cl | -10.6%
19 | CCN1CCN(C(=O)c2nc(C)n(-c3ccccc3Cl)n2)CC1 | 7.74%
20 | CCN(CC1CCCO1)C(=O)Nc1cc(C(=O)OC)ccc1F (centres undefined) | -22.1%
21 | COc1cc(C(=O)N(Cc2cccs2)C2CC2)cc2c1OCCO2 | 16%
22 | COc1ccc(CCC(=O)N2CCCCC2Cn2cccn2)cc1F (centres undefined) | -7.2%

Row | SMILES | cytotoxicity at 70.5 h
23 | Cc1ccc(NC2CCN(C(=O)COc3cccnc3)CC2)nn1 | 22%
24 | COCc1noc(-c2ccc(N(C)Cc3cn(C)nc3C)nc2)n1 | -5.15%
25 | O=C(c1ccsc1)N1C[C@@H]2CCN(C(=O)c3cscn3)[C@@H]2C1 | -6.91%
26 | Nc1cc(-c2ccc(C(=O)O)cc2O)c2cc[nH]c2n1 | 4.2%
27 | CS(=O)(=O)c1ccc2c(c1)N(C(=O)Cc1ccc(F)cc1)CCC2 | 14.3%
28 | CN1CC(c2ccccc2)CC2(CCN(C(=O)c3cccnn3)CC2)C1 (centres undefined) | -4.99%
29 | CC(NC(=O)N(C)CCCOc1ccccc1)c1nncn1C (centres undefined) | -5.85%
30 | COc1ccc(C(=O)N2CC[C@](C)(O)[C@H](C)C2)cc1N1CCOCC1 | -8.2%
31 | COCc1nc(CNc2cccc(-c3nc(C)c(C)o3)c2)cs1 | -16.1%
32 | COc1ccc(-c2cn(CCSc3ncn[nH]3)nn2)cn1 | -9.67%
33 | COc1ccc(COCC(=O)N2CCC(c3nncn3C)CC2)cc1 | -12.3%
34 | O=C(CSc1ccc(Br)cc1)NS(=O)(=O)c1ccc2c(c1)OCCO2 | 4.15%
35 | Cc1cc(CN(C)C(=O)c2ccc(Cl)c(S(C)(=O)=O)c2)no1 | 13.8%
36 | CCN(CC)c1nc(C)cc(C(=O)Nc2cccc(C(N)=O)c2)n1 | -7.03%
37 | NC(=O)Cn1ccc(NC(=O)C2(c3ccc(F)cc3)CC2)n1 | -11.2%
38 | CCc1nnc(CN(C)C(=O)CN2CC(c3ccccc3)CC2=O)o1 (centres undefined) | -4.25%
39 | Cc1nccn1-c1cc(CNS(=O)(=O)N2CCCC(C)C2)ccn1 (centres undefined) | 18%
40 | CC(C)(O)CCc1ccc(C(=O)NCCC2CCOC2)cc1 (centres undefined) | -2.2%
41 | COc1ccc(C(=O)CCC(=O)NCc2c(C)noc2C)cc1F | 23.7%
42 | O=C(NCc1ccco1)N1CCC(n2cc(-c3ccccn3)nn2)CC1 | 0.624%
43 | COCCN1CC[C@H]2CN(Cc3ccc(C)s3)C[C@@H]2C1=O | -9.57%
44 | O=C(CSc1ccc2c(c1)OCCO2)NS(=O)(=O)c1ccccc1Br | -6.54%

Reference: ChEMBL document CHEMBL3507680, “University of Dundee, Gates Library screen for HepG2 cell viability”
